From patent US8492417B2, “Topical use of thiazolidine derivatives against consequences of oxidative stress of skin” (Exsymol S.A.M., priority 2007, dated 2013)
Read-outs that look alike come from different tables or passages of the source.

Tests used:
V79 fibroblastic line [1] = experiment: Neutralization of 4-hydroxynonenal cytotoxicity, MTT cellular viability; assay type: cell-based, hamster; conditions: 4-HNE 6 ppm
Description: The experimental study has been carried out on a fibroblastic line of hamster called V79, maintained in humid atmosphere at 37° C. and 5% CO2, then seeded in 96 wells plates at the rate of 0.5.10^4 cells per well.
The cellular viability of fibroblasts is measured by the incorporation method to the bromide of 3-(4,5-dimethylthiazol-2-yl)-2,5-diphenyltetrazolium (or MTT). The results, taking the middle values obtained from three independent experiments, are presented below in table 3, in comparison with those for the N-acetyl-cysteine at 2 mM chosen as a positive reference molecule (total restoration of cellular viability in relation to a control and the non stressed cells with 4-HNE).

V79 fibroblastic line [2] = experiment: Anti-clastogen effect: micronucleus cells under genotoxic 4-HNE stress; assay type: cell-based, hamster; conditions: stress-HNE 1 ppm
Description: The study has been carried out according to identical experimental conditions (sowing) to those presented in the here-above test 3, with cell exposure to a state of “4-HNE stress ” at […] genotoxic concentration, as described (Eckel P. M., Molecular Aspects of Medicine (2003), vol. 24, pp. 161-165) as generating cellular DNA breaks and micronucleus formation (clastogen effect).
The micronucleus cell number is counted following reading of the slides with epifluorescence microscope, on 2000 cells and after marking with orange acridine (DNA colorant).
Results, taking the middle values obtained from two independent experiments, are presented below in table 4, in comparison with those for N-acetyl-cysteine at 2 mM chosen as a positive reference molecule (number of micronucleus cells close to the non-exposed control).

V79 cells = experiment: Protection against "UVA-induced" stress: intracellular ROS by CMDCF probe; assay type: cell-based, hamster; conditions: irradiated cells, UVA 5 J. cm−2
Description: The study has been carried out according to identical experimental conditions (sowing) to those presented in the here-above tests 3 and 4, but with an exposure of V79 cells to ultraviolet radiation (λ315-400 nm) with the moderate dose of 5 J. cm^−2 (“UVA-induced” stress).
The formation of intracellular ROS is measured with the permeant fluorescent probe “CMDCF” derived from fluorescein (10 μm, 15 minutes incubation).
The percentages of CMDCF cells said “positive” (cells with intracellular formation of ROS are presented below in table 6, in comparison with unirradiated cells, then with cells treated with N-acetyl-cysteine (reference molecule) and different concentrations of 2-oxo-1,3-thiazolidine compound.

[3] = "in tubo" taurine formation in contact with H2O2 solution (HPLC); assay type: physicochemical; conditions: 4 equivalents H2O2, pH 7.4, 37° C.
[4] = literature value (Cabelli 1983); cited from earlier work
[5] = Scavenging speed constant of the hydroxyl radical, Ks (OH°); parameters: unit not given here; conditions: pH 7,4, 37° C., one hour incubation; middle values of five experiments
Description: The method, described by Rehman A. and coll.
Experimentally, the tested substance is dissolved in a buffered medium of pH 7,4 to which is added a generating medium of OH^o. Following one hour of incubation at 37° C., the reaction is stopped with the help of trichloroacetic acid. […]

[6] = "Global" antioxidant power: desoxyribose protection with oxidase/hypoxanthine xanthine pair; conditions: pH 7.5
Description: The production system of ROS, described by Nowak D. and coll. […] This is characterized by the sum of the effects against the superoxide anion O2^o−, hydrogen peroxide H2O2, and the hydroxyl radical OH^o, and is expressed by following the percentage of protection of a “detecting” molecule, desoxyribose.
Experimentally, the tested substance is dissolved in a buffered medium at pH 7.5, supplemented with NaCl, MgCl2 et CaCl2. After their incubation at 37° C. in the presence of the oxidase/hypoxanthine xanthine pair, EDTA and desoxyribose, the reaction is stopped with the help of trichloroacetic acid. After addition of thiobarbituric acid, an optic density measure at 532 nm is carried out, expressed later as percentage of desoxyribose protection (following comparison with a control).

SMILES: CC(=O)N[C@@H](CS)C(=O)O [N-acetyl-cysteine, reference compound]
- viability at 2000 µM (V79 fibroblastic line [1]; compound 2 mM): 126%
- Cell number with micronucleus/2000 cells (V79 fibroblastic line [2]; compound 2 mM): 27
- % of CMDCF positive cells (V79 cells; compound 5 mM): 4%

SMILES: S=C1NCCS1 [2-thiono-1,3-thiazolidine]
- taurine (% formation) ([3]; 3 h): 30%
- taurine (% formation) ([3]; 7 h): 50%
- taurine (% formation) ([3]; 24 h): 77%
- taurine (% formation) ([3]; 48 h): 89%

SMILES: O=C1O[C@H]([C@@H](O)CO)C(O)=C1O [ascorbic acid]
- Ks (OH°) [4]: 10.1 Gigas.M-1.s-1

SMILES: O=C1NCCS1 [2-oxo-1,3-thiazolidine]
- Ks (OH°) [5]: 13.52
- % protection ([6]; compound 10 mM): 19%
- % protection ([6]; compound 20 mM): 25%
- viability at 100 µM (V79 fibroblastic line [1]; compound 0.1 mM): 40%
- viability at 1000 µM (V79 fibroblastic line [1]; compound 1 mM): 58%
- viability at 2500 µM (V79 fibroblastic line [1]; compound 2.5 mM): 100%
- Cell number with micronucleus/2000 cells (V79 fibroblastic line [2]; compound 5 mM): 21
- taurine (% formation) ([3]; 3 h): 38%
- taurine (% formation) ([3]; 7 h): 56%
- taurine (% formation) ([3]; 24 h): 82%
- taurine (% formation) ([3]; 48 h): 93%
- % of CMDCF positive cells (V79 cells; compound 0.625 mM): 24.7%
- % of CMDCF positive cells (V79 cells; compound 1.25 mM): 15.3%
- % of CMDCF positive cells (V79 cells; compound 2.5 mM): 12%
- % of CMDCF positive cells (V79 cells; compound 5 mM): 7.3%
- logP (physchem): -0.27
